# PMC10359466, “Identification of a small-molecule inhibitor that selectively blocks DNA-binding by Trypanosoma brucei replication protein A1” (Nature Communications, 2023)
# Several values for one entry are separate records, joined by “and”; a condition that tells them apart may be missing. Equal values may be shown once. Read-outs that look alike come from different tables or passages of the source.
# What was measured:
# [1] = test system: TbRPA1, γH2A, VSG3 protein levels in T. brucei cells; assay: Immunoblotting of TbRPA1, γH2A, VSG3; format: cell-based, Trypanosoma brucei; details: 10 µM
# Description: Cells were harvested at indicated time points and suspended in Laemmli buffer (Bio-Rad) at 0.25 million cells per µl. Denatured proteins from whole cells were separated on a 4–20% gradient SDS-PAGE gel (Bio-Rad) and transferred to a nitrocellulose membrane (GE Healthcare). The membranes were probed with polyclonal antibodies against TbRPA1 (a gift from Bibo Li laboratory, ProSci Inc., ID: 21371, dilution factor 1:1,000) or γH2A (generated by ABclonal for this study, antibody ID E16070 (P), dilution factor 1:1,000), or monoclonal mouse antibodies against VSG3 (Antibody and Bioresource Core facility, MSKCC, catalog number cloneVSG224-11D6, lot EQ.11-Pur.-A, dilution factor 1:1,000) or Tubulin (Sigma, catalog number T7451, clone 6-11B-1, lot 0000149704, dilution 1:5000) in 1x PBS with 0.1% Tween 20 and 1% milk (Bio-Rad) at 4 °C overnight. The membranes were then incubated with secondary antibodies conjugated with Horseradish Peroxidase (HRP) (GE Healthcare; Rabbit HRP: catalog number NA934V, lot 17640116; Mouse HRP: catalog number NA931V, lot 17041904, dilution 1:5000) for the detection of corresponding proteins using chemiluminescence (Hyglo ELC solution from Denville Scientific, catalog number E2400; ChemiDoc Imaging System from Bio-Rad).
# [2] = molecular target: T1, HsDBD-F and ATRIP interaction (Homo sapiens, UniProt P27694); assay: MST inhibition of the HsDBD-F binding with ATRIP peptide; details: 50 nM Cy5-labeled ATRIP peptide
# T1 construct: We purified 6xHis-HsDBD-F (amino acids 1–181), synthesized ATRIP peptide; made in house; host or cells: E. coli BL21 (protein); solid-phase synthesis (peptide)
# Description: Samples were then loaded into MST capillaries.
# We used one site binding to obtain a dissociation constant (Kd) and standard 4-parameter logistic curve (Sigmoidal curve) analysis to obtain the IC50 value of JC-229. We used GraphPad Prism software.
# T. brucei cells = assay: AlamarBlue cell viability / growth inhibition of T. brucei
# Method: Synergy H1 microplate reader (BioTek) was used with 560/590 nm (excitation/emission) filter settings and relative fluorescence unit (RFU) values were obtained. The percentage of viable cells were calculated from the RFU values.
# Trypanosome cells were seeded at 1 × 10^3 cells/ml density in 180 µl in a 96-well culture plate in triplicate. […] DMSO was used as a vehicle control at 0.0075%.
# LmexRPA1 DBD-AB = assay: EMSA inhibition of ssDNA binding, LmexRPA1 DBD-AB; design: species or system L. mexicana
# Method: Increasing concentrations of recombinant protein (from 0.05 to 100 nM) were incubated with 2 nM of 5´IRDye800-labeled oligo in binding buffer (20 mM Tris, pH 7.5, 10 mM NaCl, 10 mM MgCl2, 2 mM dithiothreitol (DTT), 10% glycerol, and 0.1 mg/ml BSA) for 15 min at room temperature. About 4 μl of 6x Orange dye (Sigma) was added to the 20 μl reaction, and from that, 8 μl was separated on a non-denaturing polyacrylamide gel in 1x Tris-Borate-EDTA (TBE, Invitrogen) buffer; 4% gel for RPA complex and 8% for DBD-AB, DBD-A, or DBD-B proteins. Gels were pre-run for 1 h at a constant 100 V. Protein–ssDNA complex and unbound ssDNA were separated by running the gel at a constant 80 V at 4 °C in the dark and then visualized using LI-COR Odyssey imaging system and quantified with ImageJ software.
# Samples were separated on a non-denaturing polyacrylamide gel and analyzed as described above in ssDNA-binding assay.
# TbRPA complex = TbRPA complex (Trypanosoma brucei brucei, UniProt Q384B5); assay: EMSA inhibition of ssDNA binding, TbRPA complex
# HsRPA complex = molecular target: T2, HsRPA complex (Homo sapiens, UniProt P27694); assay: EMSA inhibition of ssDNA binding, HsRPA complex
# T2 construct: made in house; host or cells: E. coli BL21
# T2 sequence (P27694 whole entry): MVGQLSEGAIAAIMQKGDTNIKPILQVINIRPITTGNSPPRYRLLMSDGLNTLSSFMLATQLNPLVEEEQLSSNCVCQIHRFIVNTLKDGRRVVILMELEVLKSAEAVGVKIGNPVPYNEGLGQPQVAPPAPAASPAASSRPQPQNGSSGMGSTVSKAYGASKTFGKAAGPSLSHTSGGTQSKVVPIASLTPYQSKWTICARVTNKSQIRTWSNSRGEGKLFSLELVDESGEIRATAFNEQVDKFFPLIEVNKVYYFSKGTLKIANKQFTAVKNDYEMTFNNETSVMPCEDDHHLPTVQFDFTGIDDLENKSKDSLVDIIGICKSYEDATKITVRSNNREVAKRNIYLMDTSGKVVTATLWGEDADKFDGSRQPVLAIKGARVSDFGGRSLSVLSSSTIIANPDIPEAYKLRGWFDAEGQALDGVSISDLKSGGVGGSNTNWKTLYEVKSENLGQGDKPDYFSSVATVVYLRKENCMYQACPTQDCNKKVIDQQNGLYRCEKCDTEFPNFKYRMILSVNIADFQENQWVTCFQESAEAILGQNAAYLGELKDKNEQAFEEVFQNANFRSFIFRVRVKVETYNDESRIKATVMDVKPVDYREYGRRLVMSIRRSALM
# T2 sequence (P15927 whole entry partner): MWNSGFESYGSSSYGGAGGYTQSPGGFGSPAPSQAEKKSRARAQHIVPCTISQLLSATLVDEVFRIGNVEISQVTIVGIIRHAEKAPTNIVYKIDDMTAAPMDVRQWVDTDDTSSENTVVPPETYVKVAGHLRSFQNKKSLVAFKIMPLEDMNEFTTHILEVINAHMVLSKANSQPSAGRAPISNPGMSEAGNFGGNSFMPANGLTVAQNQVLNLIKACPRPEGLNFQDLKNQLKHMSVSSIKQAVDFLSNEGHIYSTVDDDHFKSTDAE
# T2 sequence (P35244 whole entry partner): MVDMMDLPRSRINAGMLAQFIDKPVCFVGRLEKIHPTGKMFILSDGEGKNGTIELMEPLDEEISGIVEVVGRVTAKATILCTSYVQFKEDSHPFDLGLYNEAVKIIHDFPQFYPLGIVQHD
# T1 sequence (P27694 1-181): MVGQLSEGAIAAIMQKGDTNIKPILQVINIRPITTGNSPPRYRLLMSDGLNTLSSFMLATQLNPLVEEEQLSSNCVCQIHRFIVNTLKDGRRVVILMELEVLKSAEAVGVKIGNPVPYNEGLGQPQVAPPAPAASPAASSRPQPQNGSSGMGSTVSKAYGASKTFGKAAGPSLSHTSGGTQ
# Chain of TbRPA complex (Q38DK0 entry or part of it): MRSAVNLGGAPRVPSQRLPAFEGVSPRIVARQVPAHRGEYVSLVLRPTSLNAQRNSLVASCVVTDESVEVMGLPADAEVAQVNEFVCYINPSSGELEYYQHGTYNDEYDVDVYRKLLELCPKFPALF
# Chain of TbRPA complex (Q57ZN9 entry or part of it, further chain): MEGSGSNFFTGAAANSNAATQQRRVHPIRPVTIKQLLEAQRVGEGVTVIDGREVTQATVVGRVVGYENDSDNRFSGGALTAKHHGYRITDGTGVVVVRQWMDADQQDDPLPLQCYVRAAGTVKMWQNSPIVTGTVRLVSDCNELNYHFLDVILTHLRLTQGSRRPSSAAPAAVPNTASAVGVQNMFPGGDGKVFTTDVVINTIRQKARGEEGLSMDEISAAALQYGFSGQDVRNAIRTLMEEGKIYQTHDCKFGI
# Chain of TbRPA complex (Q384B5 entry or part of it): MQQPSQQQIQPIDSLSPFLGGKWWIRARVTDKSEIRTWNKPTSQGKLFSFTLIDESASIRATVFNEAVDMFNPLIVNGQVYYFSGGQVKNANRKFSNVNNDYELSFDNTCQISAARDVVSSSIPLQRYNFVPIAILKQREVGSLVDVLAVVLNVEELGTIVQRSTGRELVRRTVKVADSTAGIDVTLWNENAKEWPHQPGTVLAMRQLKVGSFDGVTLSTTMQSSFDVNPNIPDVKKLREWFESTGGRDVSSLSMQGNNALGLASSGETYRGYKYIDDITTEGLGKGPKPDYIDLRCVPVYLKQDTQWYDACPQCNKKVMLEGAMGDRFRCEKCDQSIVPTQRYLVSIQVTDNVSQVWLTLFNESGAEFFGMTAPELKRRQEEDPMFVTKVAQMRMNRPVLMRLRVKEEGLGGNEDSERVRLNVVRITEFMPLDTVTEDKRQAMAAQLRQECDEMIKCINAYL
structure (smiles),measurement,setting,value
"Cc1ccc(C(=O)Nc2ccc(Cl)c(Cl)c2)cc1S(=O)(=O)Nc1ccc(Cl)c(Cl)c1 [JC-229, N-(3,4-dichlorophenyl)−3-(N-(3,4-dichlorophenyl)sulfamoyl)−4-methylbenzamide]",Levels of VSG3,[1],increased
same,Levels of γH2A,[1],increased
same,TbRPA1 protein levels,[1],did not change
same,IC50,[2],~60 µM and 60.8 µM
same,Effect on parasite proliferation,"T. brucei cells; 50 µM, 3 days, AlamarBlue",abolished parasite proliferation
same,EC50,"T. brucei cells; Trypanosoma brucei, 72 h, read-out: EC50 (T. brucei growth inhibition), WT T. brucei, 72 h, AlamarBlue, standard 4-PL curve",6.6 µM
same,EC50,"T. brucei cells; Trypanosoma brucei, 72 h, read-out: EC50 (T. brucei), 0.5-50 μM, 72 h, AlamarBlue, inhibitor vs. normalized response, variable slope (Fig. 3f)",6.54 µM
same,EC50,"T. brucei cells; Trypanosoma brucei, read-out: EC50, WT (WT/WT), Fig. 8d WT strain, 72 h, [Inhibitor] vs. norm response, variable slope",5.68 µM
same,EC50,"T. brucei cells; Trypanosoma brucei, read-out: EC50, WT (WT/WT), Suppl. Table 5-B, Sigmoidal, 4-PL",5.65 µM
same,EC50,"T. brucei cells; read-out: EC50 (T. brucei growth inhibition), WT T. brucei, 72 h, AlamarBlue, standard 4-PL curve",6.58 µM and 6 µM
same,EC50,"T. brucei cells; read-out: EC50 (T. brucei), 0.5-50 μM, 72 h, AlamarBlue, inhibitor vs. normalized response, variable slope (Fig. 3f)",6.5 µM
same,EC50,"T. brucei cells; read-out: EC50, WT (WT/WT), Fig. 8d WT strain, 72 h, [Inhibitor] vs. norm response, variable slope",5.7 µM
same,Inhibition of LmexRPA1 DBD-AB ssDNA binding (EMSA),LmexRPA1 DBD-AB,did not inhibit
same,Inhibition of TbRPA complex binding to ssDNA (EMSA),TbRPA complex,inhibited
same,Effect on binding of HsRPA complex to ssDNA (EMSA),HsRPA complex,no effect
